Laboratory results taken from patent EP1439394A1, “Method and apparatus for etablishing ADME profiles in the early stage of develloppment of active substances” (priority 2002, dated 2004).

Biological target: HSA (Homo sapiens, UniProt P02768)
Details: standard ligands immobilised on the array; protein not named, HSA per Example 2 / Abb. 2
Source text: (§1) Wird SPR als Detektionsmethode eingesetzt, ist es vorteilhaft, zunächst eine Messung des Microarrays ohne Lösung (Luftmessung) durchzuführen und danach eine Messung des Microarrays mit der Pufferlösung durchzuführen, in der anschließend das ADME relevante Biomolekül gelöst wird (Puffermessung). Anschliessend wird die Pufferlösung gegen eine Lösung des ADME relevanten Biomoleküls in demselben Puffer ausgetauscht und nochmals gemessen (Proteinmessung). Die Puffermessungen und die Proteinmessungen werden mittels der Luftmessung normiert und anschließend wird die Differenz zwischen den beiden Minima der Proteinmessung und der Puffermessung ermittelt.
(§2) Die so ermittelte Verschiebung (in nm) zwischen den beiden (ggf. normierten) Messungen ist ein Maß für die Bindungsstärke zwischen den immobilisierten Liganden und dem ADME relevanten Biomolekül (s. Beispiel 1).
Anschließend wurde der Chip je dreifach in 1. Methanol/1%TFA, 2. H2O/0,1% TFA und 3. H2O/0,02M HOAc gewaschen sowie unter Stickstoffstrom getrocknet.
Alle Verbindungen weisen eine Carboxy-Funktionalität auf, die mit einem Amin umgesetzt wurden, das endständig eine Thiolgruppe zur Anbindung an die Maleimid-Kopfgruppe des Ankers trägt.
Die Wirkstoffvorstufen, die so auf die Oberfläche gebracht werden, sind in einer 40 µM Lösung aus 0,2 M Phosphatpuffer (Pi), 5 mM EDTA und 20% (v/v) EG, pH 7.0, gelöst. Das Pinning Tool setzt ca. 10 nl pro Spot ab, so daß in jedem Spot ein hoher Überschuß des Wirkstoffvorstufen-Tag Konjugates gegenüber der oberflächengebundenen Maleimid-Gruppe gewährleistet wird und somit eine vollständige Belegung der Maleimid-Gruppen erreicht werden kann. In den freien Bereichen wurden die Maleimid-Gruppen anschließend durch Inkubation des Chips in 0,2 M Pi, pH 7.0, 10mM Mesh für 30 min abgesättigt. Danach wurde je dreimal mit 1. H2O/0,02M HOAc, 2. MeOH/H2O und 3. 2-Propanol gewaschen sowie unter Stickstoffstrom getrocknet.
Die Verschiebung der Wellenlänge wurde nach 120 min aufgezeichnet. Durch die eindeutige Zuordnung der (x,y)-Koordinate zu einer bestimmten Verbindung ist diese eindeutig identifizierbar. Wirkstoffvorstufen mit hohen Verschiebungswerten sind kritisch im Hinblick auf die weitere Wirkstoffentwicklung.
Das Festphasenscreening wurde durchgeführt wie in Beispiel 1 beschrieben.

Chain of HSA (P02768 25-609): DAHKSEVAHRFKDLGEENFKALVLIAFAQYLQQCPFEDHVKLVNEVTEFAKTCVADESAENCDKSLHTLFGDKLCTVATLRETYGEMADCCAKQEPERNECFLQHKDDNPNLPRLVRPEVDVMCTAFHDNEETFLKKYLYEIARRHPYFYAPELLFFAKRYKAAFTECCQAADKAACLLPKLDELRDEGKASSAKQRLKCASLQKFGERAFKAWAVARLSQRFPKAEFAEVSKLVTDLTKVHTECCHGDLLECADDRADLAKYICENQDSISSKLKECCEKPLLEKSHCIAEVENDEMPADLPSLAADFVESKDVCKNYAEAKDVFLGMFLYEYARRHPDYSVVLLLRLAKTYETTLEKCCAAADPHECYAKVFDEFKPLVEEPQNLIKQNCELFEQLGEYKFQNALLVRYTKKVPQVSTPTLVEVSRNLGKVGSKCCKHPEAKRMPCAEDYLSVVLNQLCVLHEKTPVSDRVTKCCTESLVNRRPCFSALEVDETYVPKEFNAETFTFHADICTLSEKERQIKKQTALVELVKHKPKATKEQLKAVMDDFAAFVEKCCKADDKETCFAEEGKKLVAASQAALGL

| SMILES | Klassifizierung der Standardliganden für die Bestimmung von Distributionsparametern |
| --- | --- |
| CNCCC=C1c2ccccc2CCc2ccccc21 [Nortriptylin] | stark (stark (2,1-2,8 nm)) |
| C=C[C@H]1C[N@@]2CC[C@H]1C[C@H]2[C@H](O)c1ccnc2ccc(OC)cc12 [Chinin] | schwach (schwach (0,7-1,4 nm)) |
| CNCCCN1c2ccccc2CCc2ccccc21 [Desimpramin] | mittel (mittel (1,4-2,1 nm)) |
| C=C[C@H]1C[N@@]2CC[C@H]1C[C@@H]2[C@@H](O)c1ccnc2ccc(OC)cc12 [Chinidin] | schwach (schwach (0,7-1,4 nm)) |

Biological target: CYP3A4 (Homo sapiens, UniProt P08684)
Sequence (P08684 whole entry): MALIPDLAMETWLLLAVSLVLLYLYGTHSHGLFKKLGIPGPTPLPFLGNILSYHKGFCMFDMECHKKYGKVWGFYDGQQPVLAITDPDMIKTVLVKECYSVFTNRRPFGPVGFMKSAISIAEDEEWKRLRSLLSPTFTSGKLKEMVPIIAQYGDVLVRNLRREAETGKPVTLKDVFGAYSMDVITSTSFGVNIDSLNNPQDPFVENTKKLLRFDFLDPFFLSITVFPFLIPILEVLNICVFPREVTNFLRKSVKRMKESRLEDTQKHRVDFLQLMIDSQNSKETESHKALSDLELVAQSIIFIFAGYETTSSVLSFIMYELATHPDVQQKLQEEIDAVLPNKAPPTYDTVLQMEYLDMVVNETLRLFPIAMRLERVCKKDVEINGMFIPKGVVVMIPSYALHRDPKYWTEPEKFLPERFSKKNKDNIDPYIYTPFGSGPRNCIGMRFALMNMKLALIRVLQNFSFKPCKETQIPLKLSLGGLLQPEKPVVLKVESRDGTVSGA
Details: standard ligands immobilised on the array; CYP3A4 per Example 3 / Abb. 3
Source text: as §1, §2
Die Verschiebung der Wellenlänge wurde nach 120 min aufgezeichnet. Durch die eindeutige Zuordnung der (x,y)-Koordinate zu einer bestimmten Verbindung ist diese eindeutig identifizierbar.
3 gezeigten Standardliganden und deren Festphasenscreening gegen CYP3A4 eine Klassifizierung in sehr schwach (<1,6 nm), schwach (1,6-3,2 nm), mittel (3,2-4,8 nm), stark (4,8-6,4 nm) und sehr stark (>6,4 nm) durchgeführt. Anhand der bekannten Metabolismuseigenschaften der Standardliganden ist eine Zuordnung dieser ADME Eigenschaft für nicht bekannte Wirkstoffvorstufen möglich.

| SMILES | Klassifizierung der Standardliganden für die Bestimmung von Metabolismusparametern |
| --- | --- |
| CNCCC=C1c2ccccc2CCc2ccccc21 [Nortriptylin] | schwach (schwach (1,6-3,2 nm)) |
| CC(=O)[C@H]1CC[C@H]2[C@@H]3CCC4=CC(=O)CC[C@]4(C)[C@H]3CC[C@]12C [Progesteron] | sehr stark (sehr stark (>6,4 nm)) |
| CNCCCN1c2ccccc2CCc2ccccc21 [Desimpramin] | schwach (schwach (1,6-3,2 nm)) |
